Activity calls are given as the source filed them. No cut-off for these calls is given here. Positions of bridges follow the written chain, without caps; N, C: chain ends. Non-standard residues stand in square brackets, D forms with d. Residues, ends and D or L forms follow the SMILES beside them. dPen = CC(C)(S)[C@@H](N)C(=O)O; Orn = NCCC[C@H](N)C(=O)O
Tests used:
[1] = biological target: T1, Urotensin-2 receptor (Rattus norvegicus) (UniProt P49684); assay: Antagonist activity at UT2 receptor in Albino rat aorta assessed as inhibition of […] aortic contraction; assay type: functional, tissue-based
T1 sequence (whole entry): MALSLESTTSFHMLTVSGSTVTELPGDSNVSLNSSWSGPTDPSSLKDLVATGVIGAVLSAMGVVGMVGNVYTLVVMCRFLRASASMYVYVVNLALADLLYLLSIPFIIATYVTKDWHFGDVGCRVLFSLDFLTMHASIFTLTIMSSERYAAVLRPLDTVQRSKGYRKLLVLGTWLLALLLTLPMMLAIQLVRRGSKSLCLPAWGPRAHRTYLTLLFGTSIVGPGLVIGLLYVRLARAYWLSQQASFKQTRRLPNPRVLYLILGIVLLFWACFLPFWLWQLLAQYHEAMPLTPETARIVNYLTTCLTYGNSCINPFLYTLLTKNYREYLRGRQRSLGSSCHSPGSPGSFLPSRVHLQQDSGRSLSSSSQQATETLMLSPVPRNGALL

[2] = biological target: T1, Urotensin-2 receptor (Rattus norvegicus); conditions: Albino, Aorta
Description: Agonist activity at UT2 receptor in Albino rat aorta assessed as induction of aortic contraction

pKb [1]: 8.3 | pEC50 [2]: inactive
SMILES: CC(C)[C@H](NC(=O)[C@@H]1CSSC(C)(C)[C@@H](NC(=O)[C@@H](N)CC(=O)O)C(=O)N[C@@H](Cc2ccccc2)C(=O)N[C@H](Cc2c[nH]c3ccccc23)C(=O)N[C@@H](CCCN)C(=O)N[C@@H](Cc2ccc(O)cc2)C(=O)N1)C(=O)O (H-D[dPen]F[dW][Orn]YCV-OH; disulfide 2-7)

From ChEMBL document CHEMBL1136926 (J Med Chem, 2009)
